Converted amounts (≈) assume the structure as drawn. Where only a bound is given, the exact number is not on record here.

This note sets out measurements from ChEMBL document CHEMBL4364263, “Synthesis and biological evaluation of 2,4,5-trisubstituted thiazoles as antituberculosis agents effective against drug-resistant tuberculosis” (Eur J Med Chem, 2019).

What all share (format): functional
In test [1] the test system is Mycobacterium tuberculosis. Briefly: Antitubercular activity against isoniazid, streptomycin and rifampicin resistant Mycobacterium tuberculosis isolate 3 assessed as growth inhibition.
The test system of test [2] is Mycobacterium tuberculosis. Briefly: Antitubercular activity against isoniazid and ethionamide resistant Mycobacterium tuberculosis isolate 5 assessed as growth inhibition.
In test [3] the test system is Mycobacterium tuberculosis. In words: Antitubercular activity against isoniazid, streptomycin, ethionamide, ethambutol, rifampicin and ofloxacin resistant Mycobacterium tuberculosis isolate 8 assessed as growth inhibition.
Test [4] deals with Mycobacterium tuberculosis. Briefly: Antitubercular activity against isoniazid and rifampicin resistant Mycobacterium tuberculosis isolate 4 assessed as growth inhibition.
Test [5] concerns Mycobacterium tuberculosis. In words: Antitubercular activity against isoniazid, streptomycin, ethionamide and ethambutol resistant Mycobacterium tuberculosis isolate 1 assessed as growth inhibition.
For test [6], the system named is Mycobacterium tuberculosis. Briefly: Antitubercular activity against isoniazid, streptomycin and ethionamide resistant Mycobacterium tuberculosis isolate 6 assessed as growth inhibition.
Test [7] has as its system Mycobacterium tuberculosis. In words: Antitubercular activity against isoniazid, streptomycin, ethionamide, ethambutol and rifampicin resistant Mycobacterium tuberculosis isolate 7 assessed as growth inhibition.
Test [8] relates to Mycobacterium tuberculosis. Briefly: Antitubercular activity against isoniazid and ethionamide resistant Mycobacterium tuberculosis isolate 2 assessed as growth inhibition.

By MIC is commonly meant the lowest concentration that inhibits growth of the organism. For `CCOC(=O)c1nc(C2CCCCC2)sc1-c1ccc(C#N)cc1`, the MIC in test [1] is 16 µg/mL (≈ 47 µM); in test [2], 8 µg/mL (≈ 23.5 µM); in test [3], greater than 32 µg/mL; in test [4] it was 4 µg/mL (≈ 11.7 µM); in test [5], 8 µg/mL (≈ 23.5 µM); in test [6], 8 µg/mL (≈ 23.5 µM). For the same compound, the values for the MIC in test [7] and in test [8] were 16 µg/mL (≈ 47 µM) and 8 µg/mL (≈ 23.5 µM), respectively.
